Assay results published in PubChem BioAssay AID792 (PCMD, 2007).
Inconclusive results are not listed. Calls of active or inactive are those of the source. The rule behind the calls is not given here.

Target: S. cerevisiae eIF2B mutant, luciferase reporter luminescence
Test: eIF2B reporter inhibitors in yeast strains, dose response, S. cerevisiae, mutant, wild-type, luminescence, growth (AID 792)
[1] = measured here: mutant yeast growth

c1ccc(-c2cc(-c3nn4c(-c5ccco5)nnc4s3)c3ccccc3n2)cc1
IC50: > 100 µM (inactive)
IC50 [1]: > 100 µM

COc1ccccc1-n1nc(C(=O)Nc2ccc3c(c2)OCO3)c2ccccc2c1=O
IC50: > 100 µM (inactive)
IC50 [1]: > 100 µM

COc1cc(OC)nc(NC(=O)CCl)n1
IC50: > 100 µM (inactive)
IC50 [1]: > 100 µM

CC1(C)Cc2c(sc3c2c(=N)n(Cc2ccco2)c(=O)n3Cc2ccc(F)cc2)CO1
IC50: > 100 µM (inactive)
IC50 [1]: > 100 µM

O=C(CCS(=O)CCC(=O)NCc1ccccc1)NCc1ccccc1
IC50: > 100 µM (inactive)
IC50 [1]: > 100 µM

COc1ccccc1-n1cnnc1SCC(=O)c1cc(C)n(Cc2cccs2)c1C
IC50: > 100 µM (inactive)
IC50 [1]: > 100 µM

NC(=O)CSC1=Nc2ccccc2C2=NC(CC(=O)NCc3cccs3)C(=O)N12 (stereo not drawn)
IC50: > 100 µM (inactive)
IC50 [1]: > 100 µM

O=C(CC1Nc2ccccc2NC1=O)NC1CCCCC1 (stereo not drawn)
IC50: > 100 µM (inactive)
IC50 [1]: > 100 µM

N#CCN1CCN(CC(=O)Nc2ccc(OCc3ccccc3)cc2)CC1
IC50: > 100 µM (inactive)
IC50 [1]: > 100 µM

CCC(=O)N1CCc2cc(S(=O)(=O)NC(C(=O)NCc3ccccc3)C(C)C)ccc21 (stereo not drawn)
IC50: > 100 µM (inactive)
IC50 [1]: > 100 µM

CCOc1ccc2cc(/C=C/C(=O)c3ccco3)c(Cl)nc2c1
IC50: > 100 µM (inactive)
IC50 [1]: > 100 µM

N#CC(C(=O)OC1CCCCC1)c1nc2ccccc2nc1N1CCOCC1 (stereo not drawn)
IC50: > 100 µM (inactive)
IC50 [1]: > 100 µM

CCc1cc(=O)oc2cc3oc(C)c(C)c3cc12
IC50: > 100 µM (inactive)
IC50 [1]: > 100 µM

CCOCCCNC(=O)C1CCN(c2cc(C)nc3c(-c4ccc(OC)c(OC)c4)c(C)nn23)CC1
IC50: > 100 µM (inactive)
IC50 [1]: > 100 µM

COc1cc2cc(C(c3nnnn3C3CCCCC3)N(C)C3CCCCC3)c(=O)[nH]c2cc1OC (stereo not drawn)
IC50: > 100 µM (inactive)
IC50 [1]: > 100 µM

Cc1cccn2c(=O)c3cc(C(=O)N4c5ccccc5CC4C)n(C)c3nc12 (stereo not drawn)
IC50: > 100 µM (inactive)
IC50 [1]: > 100 µM

COc1cccc(NC(=O)CN(c2ccc(C)cc2)S(=O)(=O)c2c(C)nn(C)c2C)c1
IC50: > 100 µM (inactive)
IC50 [1]: > 100 µM

Cc1ccc(C)c(N2CCN(S(=O)(=O)c3ccc4[nH]c(=O)c(=O)[nH]c4c3)CC2)c1
IC50: > 100 µM (inactive)
IC50 [1]: > 100 µM

O=C(Nc1ccc2nc(-c3ccc4nc[nH]c4c3)[nH]c2c1)c1cccs1
IC50: > 100 µM (inactive)
IC50 [1]: > 100 µM

CN1C(=O)NC(c2ccccc2)C2=C1CN(c1cccc(C(F)(F)F)c1)C2=O (stereo not drawn)
IC50: > 100 µM (inactive)
IC50 [1]: > 100 µM

CN(C)P(=O)(C(Cl)=C(N1CCCCC1)N1CCCCC1)N(C)C
IC50: > 100 µM (inactive)
IC50 [1]: > 100 µM

CCCCCOC(=O)Cn1c(SCC(=O)Nc2ccccc2)nc2c1c(=O)[nH]c(=O)n2C
IC50: > 100 µM (inactive)
IC50 [1]: > 100 µM

Oc1cc(Cc2ccccc2)cnc1CN1CCCCC1
IC50: > 100 µM (inactive)
IC50 [1]: > 100 µM

CCOC(=O)c1ccc(N2C(=O)C=CC2=O)cc1
IC50: inactive
IC50 [1]: 6.02 µM

CCCCNS(=O)(=O)c1cccc(S(=O)(=O)N2CCCC2)c1
IC50: > 100 µM (inactive)
IC50 [1]: > 100 µM

CSc1ccccc1NC(=O)c1cc(-c2cccs2)on1
IC50: > 100 µM (inactive)
IC50 [1]: > 100 µM

CCOC(=O)Cc1csc(NC(=O)CCc2ccc(S(=O)(=O)N3CCOCC3)cc2)n1
IC50: > 100 µM (inactive)
IC50 [1]: > 100 µM

NC(=O)Cn1c(=O)n(Cc2ccco2)c(=O)c2c3c(sc21)CCCCC3
IC50: > 100 µM (inactive)
IC50 [1]: > 100 µM

O=C(OCCn1cncn1)c1cc2ccccc2oc1=O
IC50: > 100 µM (inactive)
IC50 [1]: > 100 µM

CNC(=O)CCn1nc(-c2ccccc2)c2ccccc2c1=O
IC50: > 100 µM (inactive)
IC50 [1]: > 100 µM

COc1ccc(NC(=O)CSc2ncnc3c2cnn3Cc2ccccc2)cc1OC
IC50: > 100 µM (inactive)
IC50 [1]: > 100 µM

CC(C)CNC(=O)c1cc2nc(C3CC3)cc(C(F)(F)F)n2n1
IC50: > 100 µM (inactive)
IC50 [1]: > 100 µM

Nn1c(CSc2nc3ccccc3o2)nnc1CSc1nc2ccccc2o1
IC50: > 100 µM (inactive)
IC50 [1]: > 100 µM

Cc1cnc(NC(=O)CN(C)S(=O)(=O)c2ccc(Cl)cc2)s1
IC50: > 100 µM (inactive)
IC50 [1]: > 100 µM

Cn1c(=O)n(CC(=O)N2CCC3(CC2)OCCO3)c(=O)c2ccccc21
IC50: > 100 µM (inactive)
IC50 [1]: > 100 µM

CCCCCn1c(SCC(=O)OCC)nc2cc(C(=O)NCc3ccco3)ccc2c1=O
IC50: > 100 µM (inactive)
IC50 [1]: > 100 µM

COCc1cc(=O)[nH]c(Nc2nc3ccc(C)cc3o2)n1
IC50: > 100 µM (inactive)
IC50 [1]: > 100 µM

C=CCn1c(SCc2c(Cl)cccc2Cl)nnc1-c1cccnc1
IC50: > 100 µM (inactive)
IC50 [1]: > 100 µM

Cc1c(C(=O)Nc2nccs2)sc2nc(-c3cccs3)cc(C(F)(F)F)c12
IC50: > 100 µM (inactive)
IC50 [1]: > 100 µM

CCOC(=O)C1CCN(c2ncnc3c2oc2ccccc23)CC1
IC50: > 100 µM (inactive)
IC50 [1]: > 100 µM

Fc1ccc2nc(Nc3nc4c(s3)CCCC4)sc2c1
IC50: > 100 µM (inactive)
IC50 [1]: > 100 µM

Cn1c(CNc2ccccc2)cc(=O)n(C)c1=O
IC50: > 100 µM (inactive)
IC50 [1]: > 100 µM

Cn1c(=O)[nH]c(=O)c2c1nc(SCC(O)CO)n2Cc1ccccc1Cl (stereo not drawn)
IC50: > 100 µM (inactive)
IC50 [1]: > 100 µM

COc1ccc(N/C=C(\C#N)c2nc3ccccc3n2C)c(OC)c1
IC50: > 100 µM (inactive)
IC50 [1]: > 100 µM

O=C(Cn1nnc(-c2ccc(Cl)cc2)n1)NC1CC2CCC1C2 (stereo not drawn)
IC50: > 100 µM (inactive)
IC50 [1]: > 100 µM

CN1CCN(C(=O)CSc2nc(-c3ccncc3)ccc2C#N)CC1
IC50: > 100 µM (inactive)
IC50 [1]: > 100 µM

COc1ccccc1CNC(=O)CN1CCC(NC(=O)c2ccccc2F)CC1
IC50: > 100 µM (inactive)
IC50 [1]: > 100 µM

CCn1cc(C(=O)NCC2CCCO2)c(=O)c2cc(S(=O)(=O)N3CCCCC3)ccc21 (stereo not drawn)
IC50: > 100 µM (inactive)
IC50 [1]: > 100 µM

COc1ccc(C(=O)COC(=O)CN2C(=O)NC(C)(C)C2=O)cc1OC
IC50: > 100 µM (inactive)
IC50 [1]: > 100 µM

Cc1ncc(CC(=O)n2cc(C(=O)c3cc(F)ccc3O)cn2)s1
IC50: > 100 µM (inactive)
IC50 [1]: > 100 µM

c1ccc2c(c1)CNc1ccccc1O2
IC50: > 100 µM (inactive)
IC50 [1]: > 100 µM

Cc1nn(C)c(C)c1CN(C)C(=O)c1cc2nc(-c3ccco3)cc(C(F)(F)F)n2n1
IC50: > 100 µM (inactive)
IC50 [1]: > 100 µM

O=C(O)c1cc2c(ccc3ccccc32)[nH]1
IC50: > 100 µM (inactive)
IC50 [1]: > 100 µM

CCOC(=O)c1c(N)nn(C(C)=O)c1-c1ccccc1
IC50: > 100 µM (inactive)
IC50 [1]: > 100 µM

CCSc1nnc(-c2ccc(S(=O)(=O)NCc3cccs3)cc2)o1
IC50: > 100 µM (inactive)
IC50 [1]: > 100 µM

CN(C)C(=O)Oc1ccc(OC(=O)c2ccccc2)cc1
IC50 [1]: > 100 µM

Cc1ccccc1OCc1nc2c3cnn(C)c3ncn2n1
IC50: > 100 µM (inactive)
IC50 [1]: > 100 µM
